These results are taken from patent US12570651B2, “Quinazoline-2,4-dione derivatives as PARP inhibitors” (Suzhou Four Health Pharmaceuticals Co., Ltd., priority 2019, dated 2026).

SMILES strings stand for the structures.

Usually IC50 stands for the point on the concentration scale where inhibition reaches its midpoint.

The test system of assay [1] is OE33 cells. The assay is described as follows: In vitro cell binding study, confocal microscopy. The assay is classed as cell-based. The method, then: (§1) 40 000 cells (FaDu, OE33, or Cal27) were plated in 24-well plates (Cell imaging plates with glass bottom, Eppendorf), and incubated for 2 days at 37° C. After removal of the medium, either 0.5 mL of media (Cond 1), 0.5 mL of 10 μM unlabeled PARPi (14F) (Cond 2) or 0.5 mL of 10 μM Olaparib (Cond 3) was added to the cells. After 30 minutes of incubation at 37° C., cells were washed with 1 mL of medium. Subsequently, 0.5 mL of 14F-FL at a final concentration of 0.1 μM was added and incubated for 15 min at 37° C. The cells were then washed thrice with 1 ml cold PBS, fixed with 1 mL 4% paraformaldehyde (VWR) for 7-10 minutes and washed again with 1 mL PBS. Finally, 0.5 mL of 1 μg/mL DAPI-staining solution (DAPI ready-made solution, Sigma) was added for at least 10 min to stain the cell nuclei.
(§2) High resolution bright field and fluorescent images of the cells were acquired on a confocal microscope (LSM800, Zeiss) with excitation and emission wavelengths of 405/455 nm for DAPI and 488/525 for BodipyFL (standard conditions). Images were taken with a Plan Apochromat 63×/1.4 oil objective. Images were analyzed with the Software ZenLITE (Zeiss).

The subject of assay [2] is Cal27 cells. The assay is described as follows: In vitro cell binding study, confocal microscopy. The format is cell-based. The method, then:
as §1, §2

The subject of assay [3] is FaDu cells. The assay is described as follows: In vitro cell binding study, confocal microscopy. The format is cell-based. The method, then: as §1, §2
Assay [4] deals with OE33 cells. The assay is described as follows: Cell binding by flow cytometry. The assay is classed as cell-based. The method, then: (§3) 250 000 cells (FaDu, Cal27 or OE33) in suspension were incubated with 0.5 mL media, 0.5 mL 10 μM unlabeled 14F or 0.5 mL 10 μM Olaparib-analogue. After 30 min incubation at 37° C., the cells were washed once with 0.5 mL media and subsequently incubated with 0.5 mL 0.1 μM 14F-FL for 10 min at 37° C. The cells were then washed thrice with media (including 1×10 min incubation) and resuspended in FACS buffer (PBS+0.5% FBS+EDTA+N3). Finally, cells were analyzed on a flow cytometer (BD Celesta) in the GFP channel (ex 488 nm, em filter 510 nm). Data was analyzed via FlowJo software.
(A flow cytometer gives signals particle by particle.)

Assay [5] has as its system Cal27 cells. Kind of assay: Cell binding by flow cytometry. The assay is classed as cell-based. The method, then:
as §3

The subject of assay [6] is FaDu cells. Kind of assay: Cell binding by flow cytometry. The format is cell-based. The method, then: as §3
The test system of assay [7] is FaDu cells. The assay is described as follows: In vitro association kinetics, confocal microscopy. The assay is classed as cell-based. As to conditions: 0.1 μM, 37° C. The method, then:
40 000 FaDu cells were plated in 24-well plates (Cell imaging plates with glass bottom, Eppendorf), and incubated for 2 days at 37° C. After removal of the medium, 0.5 mL of 14F-FL at a final concentration of 0.1 μM was added and incubated for 2 min, 10 min, 20 min, 30 min, 45 min or 60 min at 37° C. The cells were then washed thrice with 1 ml cold PBS, fixed with 1 mL 4% paraformaldehyde (VWR) for 7-10 minutes and washed again with 1 mL PBS. Finally, 0.5 mL of 1 μg/mL DAPI-staining solution (DAPI ready-made solution, Sigma) was added for at least 10 min to stain the cell nuclei.
as §2

Assay [8] has as its system FaDu cells. Kind of assay: In vitro dissociation kinetics, confocal microscopy. The format is cell-based. The method, then: 40 000 FaDu cells were plated in 24-well plates (Cell imaging plates with glass bottom, Eppendrof), and incubated for 2 days at 37° C. After removal of the medium, 0.5 mL of 14F-FL at a final concentration of 0.1 μM was added and incubated for 15 min at 37° C. The cells were then washed thrice with 1 ml cold PBS, and further incubated for 0 min, 30 min, 1 h, 2 h, 4 h or 24 h in medium at 37° C. After washing once with 1 mL cold PBS, the cells were fixed with 4% paraformaldehyde (VWR) and staining with DAPI as described above.
as §2

A further assay addresses T1, PARP-1 (Homo sapiens, UniProt P09874).
T1 construct: purchased BioTechne—R&D Systems 4677-096-K
Kind of assay: PARP/Apoptosis Universal Colorimetric Assay Kit (ELISA), PARP inhibitory activity. The assay is classed as biochemical. As to conditions: for IC50, comparison in words: ELISA; for IC50: Elise test methods April 2020, 0.5 U/well PARP-HSA Enzyme, read-out: IC50-values for different PARP-inhibitors, as calculated by ELISA. The method, then: The inhibitors (13F, 14F, 13I-FL, 13F-FL, 14F-FL, 13I and 14I) were kept at −20° C., dissolved in DMSO at 20 mg/mL.
The PARP/Apoptosis Universal Colorimetric Assay Kit 4677-096-K was purchased from BioTechne—R&D Systems. This ELISA kit detects biotinylated poly (ADP-ribose) deposited by PARP-1 onto immobilized histones in a 96-well format. The addition of Strep-HRP (biotin-binding protein) and a colorimetric HRP substrate yields relative absorbance that correlates with PARP-1 activity. The kit is used for in vitro screening of candidate PARP-1 inhibitors and determination of IC50 values.
The protocol recommended by the provider was followed. A 1/10 serial dilution of the inhibitors (ranging from 500 μM to 0.5 nM, 7 data points in triplicate) was added to the designated wells. Wells incubated with 0.5 U/well of PARP-HSA Enzyme without inhibitor were used as the 100% activity reference point. Data was expressed as % of Maximal Activity and plotted in function of the log of concentration (M)) using Graph Pad Prism 8. IC50 values were determined using a dose-response-inhibition equation.

Where [9] appears, read: 0.1 μM 14F-FL, 15 min at 37° C.
Where [10] appears, read: 0.1 μM 14F-FL, 10 min at 37° C.
[11] abbreviates: 0.1 μM 15 min, washed, medium at 37° C.
[12] abbreviates: 10 μM pretreatment 30 min, then 0.1 μM 14F-FL.

T1 sequence (P09874 whole entry): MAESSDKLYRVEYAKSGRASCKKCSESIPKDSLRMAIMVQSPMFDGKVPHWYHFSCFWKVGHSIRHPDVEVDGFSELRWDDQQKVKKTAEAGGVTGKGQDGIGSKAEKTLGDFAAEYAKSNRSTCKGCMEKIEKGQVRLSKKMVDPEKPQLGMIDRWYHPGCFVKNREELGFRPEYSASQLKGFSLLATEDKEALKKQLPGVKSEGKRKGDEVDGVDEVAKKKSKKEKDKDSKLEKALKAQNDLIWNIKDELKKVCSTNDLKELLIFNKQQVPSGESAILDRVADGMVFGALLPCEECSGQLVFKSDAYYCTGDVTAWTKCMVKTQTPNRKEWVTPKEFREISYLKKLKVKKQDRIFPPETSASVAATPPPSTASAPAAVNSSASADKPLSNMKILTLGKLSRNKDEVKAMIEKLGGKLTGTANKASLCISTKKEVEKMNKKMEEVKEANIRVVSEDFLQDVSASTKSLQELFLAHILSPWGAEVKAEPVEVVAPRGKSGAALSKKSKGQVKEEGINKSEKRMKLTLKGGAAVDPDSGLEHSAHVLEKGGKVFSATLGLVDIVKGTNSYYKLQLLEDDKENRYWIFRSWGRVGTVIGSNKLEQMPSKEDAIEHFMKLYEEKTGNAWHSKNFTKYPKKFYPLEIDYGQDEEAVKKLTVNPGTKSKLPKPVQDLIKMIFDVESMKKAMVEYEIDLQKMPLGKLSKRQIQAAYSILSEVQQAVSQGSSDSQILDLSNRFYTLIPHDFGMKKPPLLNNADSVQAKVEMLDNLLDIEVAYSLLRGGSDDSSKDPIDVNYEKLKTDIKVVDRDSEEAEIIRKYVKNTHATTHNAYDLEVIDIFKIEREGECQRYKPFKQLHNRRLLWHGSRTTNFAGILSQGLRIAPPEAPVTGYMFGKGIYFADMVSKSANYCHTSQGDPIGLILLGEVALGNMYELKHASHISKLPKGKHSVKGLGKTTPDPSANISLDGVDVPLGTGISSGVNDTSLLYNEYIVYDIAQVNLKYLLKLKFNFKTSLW

Take `CC1=CC(C)=[N+]2C1=Cc1ccc(CCC(=O)N3CCN(C(=O)c4cc(Cn5c(=O)[nH]c(=O)c6ccccc65)ncc4F)CC3)n1[B-]2(F)F` [Compound 14F-FL, 1-((4-(4-(3-(5,5-difluoro-7,9-dimethyl-5H-5I4,6I4-dipyrrolo[1,2-c:2′,1′-f][1,3,2]diazaborinin-3-yl)propanoyl)piperazine-1-carbonyl)-5-fluoropyridin-2-yl)methyl)quinazoline-2,4(1H,3H)-dione]: the “fluorescent signal in the nuclei” value with OE33 cells [1] (setting [9]), with Cal27 cells [2] (setting [9]) and in the assay with FaDu cells [3] (setting [9]) was “intense green fluorescent signal” throughout. The “cell binding, flow cytometry” value in the assay on OE33 cells [4] (setting [10]), in the assay with Cal27 cells [5] (setting [10]) and in the assay on FaDu cells [6] (setting [10]) was “significant binding” each time. Further, the “incubation time to maximal binding” value in the assay with FaDu cells [7] is listed as at most 10 min. Moreover, the “retention on target after binding” value with FaDu cells [8] (setting [11]) is reported as “remains bound to its target for a few hours”. Moreover, the “time from which the signal in the nucleus gradually decreases” value with FaDu cells [8] (setting [11]) was in the range of 2 to 4 h. In addition, the “signal in the nuclei after 24 h” value in the assay on FaDu cells [8] (24 h in medium at 37° C. after washing) is recorded as “some signal can still be observed”. The “IC50, comparison in words” value against PARP-1 was “Best IC50-values”. The IC50 at PARP-1 is below 50 nM.

For `O=C(c1cc(Cn2c(=O)[nH]c(=O)c3cccnc32)ccc1F)N1CCN(C(=O)C2CCCC2)CC1` [Compound 13F, 1-(3-(4-(cyclopentanecarbonyl)piperazine-1-carbonyl)-4-fluorobenzyl)pyrido[2,3-d]pyrimidine-2,4(1H,3H)-dione], at PARP-1, the half-inhibitory concentration (IC50) was 50 to 500 nM.

With `CC1=CC(C)=[N+]2C1Cc1ccc(CCC(=O)N3CCN(C(=O)c4cc(Cn5c(=O)[nH]c(=O)c6cccnc65)ccc4F)CC3)n1[B-]2(F)F` (stereo not shown) [Compound 13F-FL, 1-(3-(4-(3-(5,5-difluoro-7,9-dimethyl-5H-5I4,6I4-dipyrrolo[1,2-c:2′,1′-f][1,3,2]diazaborinin-3-yl)propanoyl)piperazine-1-carbonyl)-4-fluorobenzyl)pyrido[2,3-d]pyrimidine-2,4(1H,3H)-dione], on PARP-1, the half-inhibitory concentration (IC50) is 50 to 500 nM.

Regarding `O=C(c1cc(Cn2c(=O)[nH]c(=O)c3ccccc32)ncc1I)N1CCN(C(=O)C2CCCC2)CC1` [Compound 14I, 1-((4-(4-(cyclopentanecarbonyl)piperazine-1-carbonyl)-5-iodopyridin-2-yl)methyl)quinazoline-2,4(1H,3H)-dione], on PARP-1, the 50% inhibitory concentration (IC50) is above 500 nM.

Turning to `O=C(c1cc(Cn2c(=O)[nH]c(=O)c3cccnc32)ccc1I)N1CCN(C(=O)C2CCCC2)CC1` [Compound 13I, 1-(3-(4-(cyclopentanecarbonyl)piperazine-1-carbonyl)-4-iodobenzyl) pyrido [2,3-d]pyrimidine-2,4(1H,3H)-dione], on PARP-1, the IC50 was above 500 nM.

As to `CC1=CC(C)=[N+]2C1Cc1ccc(CCC(=O)N3CCN(C(=O)c4cc(Cn5c(=O)[nH]c(=O)c6cccnc65)ccc4I)CC3)n1[B-]2(F)F` (stereo not shown) [Compound 13I-FL, 1-(3-(4-(3-(5,5-difluoro-7,9-dimethyl-5H-5I4,6I4-dipyrrolo[1,2-c:2′,1′-f][1,3,2]diazaborinin-3-yl)propanoyl)piperazine-1-carbonyl)-4-iodobenzyl)pyrido[2,3-d]pyrimidine-2,4(1H,3H)-dione], the half-maximal inhibitory concentration (IC50) at PARP-1 was above 500 nM.

For the compound `O=C(c1cc(Cn2c(=O)[nH]c(=O)c3ccccc32)ncc1F)N1CCN(C(=O)C2CCCC2)CC1` [Compound 14F, 1-((4-(4-(cyclopentanecarbonyl)piperazine-1-carbonyl)-5-fluoropyridin-2-yl)methyl)quinazoline-2,4(1H,3H)-dione], the “14F-FL signal after pretreatment with excess of unlabeled analogue” value with OE33 cells [1] (setting [12]), with Cal27 cells [2] (setting [12]) and with FaDu cells [3] (setting [12]) was “no green fluorescent signal” each time. Also, the “14F-FL binding after pretreatment with excess unlabeled compound, flow cytometry” value in the assay with OE33 cells [4] (setting [12]), in the assay with Cal27 cells [5] (setting [12]) and in the assay on FaDu cells [6] (setting [12]) was “decreased the binding” each time. For the same compound, the “IC50, comparison in words” value against PARP-1 is listed as “Best IC50-values”. Further, the IC50 on PARP-1 was below 50 nM.
